Patent US20100063047A1 (KALYPSYS, INC., priority 2008, published 2010)

How the values were obtained:
human H4 = target: T1, human H4 (Homo sapiens, UniProt Q9H3N8); test: In vitro histamine H4 receptor cell-based aequorin bioluminescence antagonist assay; details: CHO-K1 cells expressing human H4, aequorin and Gα16; histamine at EC80
T1 construct: host or cells: CHO-K1, also expressing mitochondrion-targeted aequorin and human Gα16
Protocol: In vitro Histamine Receptor Cell-Based Assays
The cell-based assays utilize an aequorin dependent bioluminescence signal. Doubly-transfected, stable CHO—K1 cell lines expressing human H1 or H4, mitochondrion-targeted aequorin, and (H4 only) human G protein Gα16 are obtained from Perkin-Elmer. Cells are maintained in F12 (Ham's) growth medium, containing 10% (vol./vol.) fetal bovine serum, penicillin (100 IU/mL), streptomycin (0.1 mg/mL), zeocin (0.25 mg/mL) and geneticin (0.40 mg/mL). Cell media components are from Invitrogen, Inc. One day prior to assay, the growth medium is replaced with the same, excluding zeocin and geneticin.
For assay preparation, growth medium is aspirated, and cells are rinsed with calcium-free, magnesium-free phosphate-buffered saline, followed by two to three minute incubation in Versene (Invitrogen, Inc.) at 37° C. Assay medium (DMEM:F12 [50:50], phenol-red free, containing 1 mg/mL protease-free bovine serum albumin) is added to collect the released cells, which are then centrifuged. The cell pellet is re-suspended in assay medium, centrifuged once more, and re-suspended in assay medium to a final density of 5×10^6 cells/mL. Coelenterazine-h dye (500 μM in ethanol) is added to a final concentration of 5 μM, and mixed immediately. The conical tube containing the cells is then wrapped with foil to protect the light-sensitive dye. The cells are incubated for four hours further at room temperature (approximately 21° C.) with end-over-end rotation to keep them in suspension.
Just before assay, the dye-loaded cells are diluted to 0.75×10^6 cells/mL (H1 receptor) or 1.5×10^6 cells/mL (H4 receptor) with additional assay medium. Cells are dispensed to 1536 well micro-titer plates at 3 μL/well. To assay receptor antagonism, 60 nl of 100× concentration test compounds in 100% dimethyl sulfoxide (DMSO) are dispensed to the wells, one compound per well, by passive pin transfer, and the plates are incubated for 15 minutes at room temperature. […] The pipette dispenses 3 μL/well of agonist (histamine, at twice the final concentration, where final concentration is a previously determined EC80) in assay medium, with concurrent bioluminescence detection. Agonist activity of test compounds is excluded by separate assays that measure response to test compounds immediately, without added histamine agonist.
CCD image capture on the Lumilux includes a 5 second baseline read prior to agonist addition, and generally a 40 second read per plate after agonist addition. A decrease in bioluminescence signal (measured either as area-under-the-curve, or maximum signal amplitude minus minimum signal amplitude) correlates with receptor antagonism in a dose dependent manner. The negative control is DMSO lacking any test compound. For antagonist assays, the positive controls are diphenhydramine (2-Diphenylmethoxy-N,N-dimethylethylamine, 10 μM final concentration, H1 receptor) or JNJ7777120 (1-[(5-Chloro-1H-indol-2-yl)carbonyl]-4-methyl-piperazine, 10 μM final concentration, H4 receptor). Efficacy is measured as a percentage of positive control activity.

human H1 = target: T2, human H1 (Homo sapiens, UniProt P35367); test: In vitro histamine H1 receptor cell-based aequorin bioluminescence antagonist assay; details: CHO-K1 cells expressing human H1 and aequorin; histamine at EC80; read-out: H1 Antagonist EC50
T2 construct: host or cells: CHO-K1, also expressing mitochondrion-targeted aequorin
T2 sequence (P35367 whole entry): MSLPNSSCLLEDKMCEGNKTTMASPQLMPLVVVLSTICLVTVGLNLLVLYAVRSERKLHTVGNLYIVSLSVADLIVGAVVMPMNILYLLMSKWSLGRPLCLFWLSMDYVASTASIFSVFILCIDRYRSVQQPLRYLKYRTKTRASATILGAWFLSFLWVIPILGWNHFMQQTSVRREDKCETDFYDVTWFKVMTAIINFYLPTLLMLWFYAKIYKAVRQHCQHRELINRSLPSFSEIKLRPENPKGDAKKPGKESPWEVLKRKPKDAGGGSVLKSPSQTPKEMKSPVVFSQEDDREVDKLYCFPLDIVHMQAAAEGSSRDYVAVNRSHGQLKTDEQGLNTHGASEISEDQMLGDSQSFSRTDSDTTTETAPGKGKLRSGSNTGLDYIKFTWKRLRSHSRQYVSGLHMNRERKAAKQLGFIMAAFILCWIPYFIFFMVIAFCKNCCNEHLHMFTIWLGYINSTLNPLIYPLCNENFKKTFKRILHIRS
In short: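 CHO-K1 cells stably expressing human H1 or H4 plus mitochondrial aequorin (H4 also with Gα16), loaded with 5 μM coelenterazine-h for 4 h at ~21 °C. Compounds preincubated 15 min at room temperature, then histamine at EC80 added.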

T1 sequence (Q9H3N8 whole entry): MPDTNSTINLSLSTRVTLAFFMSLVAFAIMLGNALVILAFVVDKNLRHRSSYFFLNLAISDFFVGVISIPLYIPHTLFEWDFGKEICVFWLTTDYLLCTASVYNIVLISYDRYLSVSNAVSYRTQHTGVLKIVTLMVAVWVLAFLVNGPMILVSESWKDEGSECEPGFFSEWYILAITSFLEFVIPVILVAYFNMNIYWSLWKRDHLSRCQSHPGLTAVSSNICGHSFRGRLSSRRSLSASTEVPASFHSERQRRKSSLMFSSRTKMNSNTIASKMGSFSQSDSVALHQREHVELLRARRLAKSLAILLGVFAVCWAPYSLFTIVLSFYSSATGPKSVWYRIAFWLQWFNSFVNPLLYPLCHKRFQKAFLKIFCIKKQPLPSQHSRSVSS

| Structure (SMILES) | EC50 (human H4) [µM] | EC50 (human H1) [µM] |
| --- | --- | --- |
| Cc1csc2ncnc(N3Cc4ccccc4C3)c12 [Example 208, 2-{5-methylthieno[2,3-d]pyrimidin-4-yl}-2,3-dihydro-1H-isoindole] | > 10 | > 10 |
| Cc1csc2ncnc(N3CCN(c4ccccc4F)CC3)c12 [Example 245, 1-(2-fluorophenyl)-4-{5-methylthieno[2,3-d]pyrimidin-4-yl}piperazine] | > 10 | > 10 |
| Cc1csc2ncnc(N(C)C)c12 [Example 178, N,N,5-trimethylthieno[2,3-d]pyrimidin-4-amine] | > 10 | > 10 |
| C#CCN(Cc1ccc(Cl)cc1Cl)c1ncnc2scc(C)c12 [Example 281, N-[(2,4-dichlorophenyl)methyl]-5-methyl-N-(prop-2-yn-1-yl)thieno[2,3-d]pyrimidin-4-amine] | > 10 | > 10 |
| Cc1csc2ncnc(N(C)Cc3cccc4ccccc34)c12 [Example 274, N,5-dimethyl-N-(naphthalen-1-ylmethyl)thieno[2,3-d]pyrimidin-4-amine] | > 10 | > 10 |
| Cc1csc2ncnc(NCC#N)c12 [Example 52, 2-({5-methylthieno[2,3-d]pyrimidin-4-yl}amino)acetonitrile] | > 10 | > 10 |
| CCN(CC)CCCC(C)Nc1ncnc2scc(C)c12 (centres unmarked) [Example 151, diethyl[4-({5-methylthieno[2,3-d]pyrimidin-4-yl}amino)pentyl]amine] | > 10 | > 10 |
| Cc1csc2ncnc(N3CCC(C(N)=O)CC3)c12 [Example 211, 1-{5-methylthieno[2,3-d]pyrimidin-4-yl}piperidine-4-carboxamide] | > 10 | > 10 |
| Cc1csc2ncnc(N(CCO)CCO)c12 [Example 198, 2-[(2-hydroxyethyl)({5-methylthieno[2,3-d]pyrimidin-4-yl})amino]ethan-1-ol] | > 10 | > 10 |
| Cc1csc2ncnc(NN3CCOCC3)c12 [Example 81, N-{5-methylthieno[2,3-d]pyrimidin-4-yl}morpholin-4-amine] | > 10 | > 10 |
| CCCN(CCC)c1ncnc2scc(C)c12 [Example 196, 5-methyl-N,N-dipropylthieno[2,3-d]pyrimidin-4-amine] | > 10 | > 10 |
| Cc1ccc([C@@H](C)Nc2ncnc3scc(C)c23)cc1 [Example 115, 5-methyl-N-[(1R)-1-(4-methylphenyl)ethyl]thieno[2,3-d]pyrimidin-4-amine] | > 10 | > 10 |
| CCN(CCO)c1ncnc2scc(C)c12 [Example 188, 2-[ethyl({5-methylthieno[2,3-d]pyrimidin-4-yl})amino]ethan-1-ol] | > 10 | > 10 |
| Cc1csc2ncnc(N3CCCC4CCCCC43)c12 (centres unmarked) [Example 222, 1-{5-methylthieno[2,3-d]pyrimidin-4-yl}-decahydroquinoline] | > 10 | > 10 |
| Cc1csc2ncnc(NC(C)CO)c12 (centres unmarked) [Example 63, 2-({5-methylthieno[2,3-d]pyrimidin-4-yl}amino)propan-1-ol] | > 10 | > 10 |
| Cc1csc2ncnc(N3CCC(C)CC3)c12 [Example 191, 4-methyl-1-{5-methylthieno[2,3-d]pyrimidin-4-yl}piperidine] | > 10 | > 10 |
| CCN(C)c1ncnc2scc(C)c12 [Example 179, N-ethyl-N,5-dimethylthieno[2,3-d]pyrimidin-4-amine] | > 10 | > 10 |
| Cc1csc2ncnc(N(C)Cc3ccccc3)c12 [Example 209, N-benzyl-N,5-dimethylthieno[2,3-d]pyrimidin-4-amine] | > 10 | > 10 |
| Cc1ccc(S(=O)(=O)NCCNc2ncnc3scc(C)c23)cc1 [Example 177, 4-methyl-N-[2-({5-methylthieno[2,3-d]pyrimidin-4-yl}amino)ethyl]benzene-1-sulfonamide] | > 10 | > 10 |

| Structure (SMILES) | EC50 (human H4) [µM] | EC50 (human H1) [µM] |
| --- | --- | --- |
| Cc1csc2ncnc(N(CCC#N)Cc3cccnc3)c12 [Example 232, 3-({5-methylthieno[2,3-d]pyrimidin-4-yl}(pyridin-3-ylmethyl)amino)propanenitrile] | > 10 | > 10 |
| Cc1csc2ncnc(CC(=O)Nc3ccc(Cl)cc3)c12 [Example 33, N-(4-chlorophenyl)-2-(5-methylthieno[2,3-d]pyrimidin-4-yl)acetamide] | > 10 | > 10 |
| COc1ccc(CCN(C)c2ncnc3scc(C)c23)cc1OC [Example 264, N-[2-(3,4-dimethoxyphenyl)ethyl]-N,5-dimethylthieno[2,3-d]pyrimidin-4-amine] | > 10 | > 10 |
| Cc1csc2ncnc(NCCC#N)c12 [Example 57, 3-({5-methylthieno[2,3-d]pyrimidin-4-yl}amino)propanenitrile] | > 10 | > 10 |
| Cc1csc2ncnc(NC3CONC3=O)c12 (centres unmarked) [Example 80, 4-({5-methylthieno[2,3-d]pyrimidin-4-yl}amino)-1,2-oxazolidin-3-one] | > 10 | > 10 |
| Cc1csc2ncnc(NC3CC(C)(C)NC(C)(C)C3)c12 [Example 150, 2,2,6,6-tetramethyl-N-{5-methylthieno[2,3-d]pyrimidin-4-yl}piperidin-4-amine] | > 10 | > 10 |
| Cc1csc2ncnc(NCCN(C(C)C)C(C)C)c12 [Example 137] | > 10 | > 10 |
| C=CCN(c1ncnc2scc(C)c12)C1CCCCC1 [Example 223, N-cyclohexyl-5-methyl-N-(prop-2-en-1-yl)thieno[2,3-d]pyrimidin-4-amine] | > 10 | > 10 |
| Cc1csc2ncnc(NC3CCCc4ccccc43)c12 (centres unmarked) [Example 138, 5-methyl-N-(1,2,3,4-tetrahydronaphthalen-1-yl)thieno[2,3-d]pyrimidin-4-amine] | > 10 | > 10 |
| Cc1csc2ncnc(NCCCCO)c12 [Example 74, 4-({5-methylthieno[2,3-d]pyrimidin-4-yl}amino)butan-1-ol] | > 10 | > 10 |
| CCNc1ncnc2scc(C)c12 [Example 50, N-ethyl-5-methylthieno[2,3-d]pyrimidin-4-amine] | > 10 | > 10 |
| Cc1ccc(N2CCN(c3ncnc4scc(C)c34)CC2)cc1C [Example 257, 1-(3,4-dimethylphenyl)-4-{5-methylthieno[2,3-d]pyrimidin-4-yl}piperazine] | > 10 | > 10 |
| COc1ccc(N2CCN(c3ncnc4scc(C)c34)CC2)cc1OC [Example 4, 4-(4-(3,4-dimethoxyphenyl)piperazin-1-yl)-5-methylthieno[2,3-d]pyrimidine] | > 10 | > 10 |
| CCN(CCCCO)c1ncnc2scc(C)c12 [Example 207, 4-[ethyl({5-methylthieno[2,3-d]pyrimidin-4-yl})amino]butan-1-ol] | > 10 | > 10 |
| Cc1csc2ncnc(N3CCC[C@@H]3CO)c12 [Example 194, [(2R)-1-{5-methylthieno[2,3-d]pyrimidin-4-yl}pyrrolidin-2-yl]methanol] | > 10 | > 10 |
| COc1ccc(C(=O)CNc2ncnc3scc(C)c23)cc1 [Example 174, 1-(4-methoxyphenyl)-2-({5-methylthieno[2,3-d]pyrimidin-4-yl}amino)ethan-1-one] | > 10 | > 10 |
| CCC(C)Nc1ncnc2scc(C)c12 (centres unmarked) [Example 60, N-(butan-2-yl)-5-methylthieno[2,3-d]pyrimidin-4-amine] | > 10 | > 10 |
| CCCCN(CC)c1ncnc2scc(C)c12 [Example 195, N-butyl-N-ethyl-5-methylthieno[2,3-d]pyrimidin-4-amine] | > 10 | > 10 |
